The supplement of paper PMC13380429

Tests used:
Settings in all cases: 72 h
HepG2 [1] = test: relative viability EC50 (midpoint between 100% and the lowest measured viability); higher = less toxic
U2OS [2] = test: as above
Calu-3 [3] = test: as above
Vero E6 [4] = test: as above
HepG2 [5] = test: cell viability relative to DMSO; higher = less toxic
Caco-2 [6] = test: as above
U2OS [7] = test: as above
Calu-3 [8] = test: as above
Vero E6 [9] = test: as above
HepG2 [10] = test: drug sensitivity score (DSS) for viability; higher = more toxic; extreme values may be limits of the assay
Caco-2 [11] = test: as above
U2OS [12] = test: as above
Calu-3 [13] = test: as above
Vero E6 [14] = test: as above

Row | Compound | relative viability EC50 (HepG2 [1]) [µM] | relative viability EC50 (U2OS [2]) [µM] | relative viability EC50 (Calu-3 [3]) [µM] | relative viability EC50 (Vero E6 [4]) [µM] | cell viability (HepG2 [5]; 1 nM) [%] | cell viability (HepG2 [5]; 10 nM) [%] | cell viability (HepG2 [5]; 100 nM) [%] | cell viability (HepG2 [5]; 1000 nM) [%] | cell viability (HepG2 [5]; 10000 nM) [%] | cell viability (Caco-2 [6]; 1 nM) [%] | cell viability (Caco-2 [6]; 10 nM) [%] | cell viability (Caco-2 [6]; 100 nM) [%] | cell viability (Caco-2 [6]; 1000 nM) [%] | cell viability (Caco-2 [6]; 10000 nM) [%] | cell viability (U2OS [7]; 1 nM) [%] | cell viability (U2OS [7]; 10 nM) [%] | cell viability (U2OS [7]; 100 nM) [%] | cell viability (U2OS [7]; 1000 nM) [%] | cell viability (U2OS [7]; 10000 nM) [%] | cell viability (Calu-3 [8]; 1 nM) [%] | cell viability (Calu-3 [8]; 10 nM) [%] | cell viability (Calu-3 [8]; 100 nM) [%] | cell viability (Calu-3 [8]; 1000 nM) [%] | cell viability (Calu-3 [8]; 10000 nM) [%] | cell viability (Vero E6 [9]; 1 nM) [%] | cell viability (Vero E6 [9]; 10 nM) [%] | cell viability (Vero E6 [9]; 100 nM) [%] | cell viability (Vero E6 [9]; 1000 nM) [%] | cell viability (Vero E6 [9]; 10000 nM) [%] | drug sensitivity score (HepG2 [10]) | drug sensitivity score (Caco-2 [11]) | drug sensitivity score (U2OS [12]) | drug sensitivity score (Calu-3 [13]) | drug sensitivity score (Vero E6 [14])
1 | O=C(Nc1cccnc1)N1CCC(Cc2cccc(Oc3ccc(C(F)(F)F)cn3)c2)CC1 [PF-3845] | 3.25 | > 10 | > 10 | > 10 | 109 | 102 | 98.3 | 101 | 32.7 | 99.7 | 103 | 90.3 | 92.4 | 66.9 | 97.3 | 107 | 101 | 98.5 | 82.7 | 103 | 105 | 104 | 102 | 79.1 | 103 | 96.8 | 89.9 | 101 | 78.7 | 3.6 | 2.4 | 0.6 | 0.5 | 0.6
2 | CC[C@H](C)C(=O)O[C@H]1C[C@H](O)C=C2C=C[C@H](C)[C@H](CC[C@@H](O)C[C@@H](O)CC(=O)O)[C@H]21 [PRAVASTATIN SODIUM] | […] | […] | […] | […] | 112 | 105 | 93 | 86.1 | 112 |  |  |  |  |  | 97.7 | […] | 94.2 | 101 | 98.5 | 98.2 | 93.8 | 93.3 | 98.2 | 95.2 | 98.9 | 109 | 107 | 96.4 | 105 | 0 |  | 0 | 0 | 0
3 | N#CC(=C(/N)Sc1ccccc1N)/C(C#N)=C(/N)Sc1ccccc1N [U-0126] | 0.953 | > 10 | > 10 | > 10 | 101 | 95.9 | 94.7 | 70.6 | 41 | 100 | 96.8 | 99.3 | 86.4 | 65 | 98.2 | 104 | 96.9 | 98.3 | 84.3 | 94.6 | 102 | 100 | 90.6 | 93.5 | 102 | 99.9 | 97.9 | 88.6 | 80.9 | 6.6 | 3.4 | 0.4 | 0 | 1.3
4 | CCCSc1ccc2[nH]c(NC(=O)OC)nc2c1 [albendazole] | 0.824 | 1.37 |  | 1.39 | 103 | 97.9 | 85.6 | 68.7 | 33.1 | 87.7 | 98.6 | 96.9 | 88 | 66.7 | 101 | 100 | 94.5 | 81.1 | 47.8 | 107 | 102 | 111 | 94.7 | 66.4 | 105 | 95.3 | 104 | 80.1 | 34.6 | 7.8 | 2.8 | 4.9 | 2.4 | 6.5
5 | COc1ccc(C(=O)N2CCCC2=O)cc1 [aniracetam] |  |  |  |  |  |  |  |  |  |  |  |  |  |  |  |  |  |  |  |  |  |  |  |  |  |  |  |  |  | 0 |  | 0 | 0 | 0
6 | CCN1CCN(C(=O)Cc2ccc(Nc3ncc(F)c(Nc4ccc(C(=O)Nc5ccccc5Cl)cc4)n3)cc2)CC1 [aurora-a-inhibitor-i] |  | 3.09 | > 10 | > 10 | 91.2 | 90.7 | 89.6 | 93.9 | 64.8 | 101 | 93.4 | 95.5 | 98 | 74.9 | 100 | 99.8 | 99.2 | 99.1 | 12 | 101 | 103 | 109 | 94.8 | 84.5 | 97 | 106 | 99.6 | 93.4 | 86.8 | 2.7 | 1.2 | 5 | 0.7 | 0.4
7 | Cn1cnc2c(F)c(Nc3ccc(Br)cc3F)c(C(=O)NOCCO)cc21 [binimetinib] | 0.0323 | 2.2 | 0.078 |  | 96 | 83.6 | 38 | 23.7 | 20.8 | 94 | 87.3 | 77.2 | 73 | 65.6 | 97.9 | 91.4 | 92 | 93.4 | 43.9 | 94.7 | 77.5 | 66.4 | 59.9 | 37.2 | 97.2 | 92.4 | 72.6 | 56.5 | 51.2 | 23.5 | 8.1 | 4.1 | 14.1 | 11.5
8 | COc1cc(N2CCC(N3CCN(C)CC3)CC2)ccc1Nc1ncc(Cl)c(Nc2ccccc2P(C)(C)=O)n1 [brigatinib] |  |  | 1.92 | > 10 | 98.1 | 92.8 | 105 | 81.7 | 55 | 94.9 | 97 | 92.8 | 94 | 73 | 97.2 | 99.5 | 97.4 | 98.4 | 64.8 | 105 | 102 | 106 | 89.5 | 35.3 | 98.7 | 102 | 101 | 94.5 | 78.5 | 4.8 | 1.8 | 1.9 | 5.3 | 1.4
9 | O=C(N[C@H](CO)[C@H](O)c1ccc([N+](=O)[O-])cc1)C(Cl)Cl [chloramphenicol] |  |  |  |  |  |  |  |  |  |  |  |  |  |  |  |  |  |  |  |  |  |  |  |  |  |  |  |  |  | 1.1 |  | 0 | 0 | 0
10 | Oc1ccc(Cl)cc1Cc1cc(Cl)ccc1O [dichlorophen] | > 10 | > 10 |  | > 10 | 105 | 89.4 | 96.9 | 97.9 | 76.6 | 107 | 88.9 | 108 | 70.1 | 54.6 | 101 | 95.1 | 96.7 | 99.7 | 93.5 |  |  |  |  |  | 106 | 99.4 | 104 | 97.5 | 86.7 | 1.1 | 5.9 | 0 |  | 0.3
11 | O=C(O)Cc1ccccc1Nc1c(Cl)cccc1Cl [diclofenac] |  |  |  |  |  |  |  |  |  |  |  |  |  |  |  |  |  |  |  |  |  |  |  |  |  |  |  |  |  |  |  | 0 | 0 | 0
12 | COc1ccc(-c2oc3c(CC=C(C)C)c(O[C@@H]4O[C@H](CO)[C@@H](O)[C@H](O)[C@H]4O)cc(O)c3c(=O)c2O[C@@H]2O[C@@H](C)[C@H](O)[C@@H](O)[C@H]2O)cc1 [icariin] |  |  |  |  |  |  |  |  |  |  |  |  |  |  |  |  |  |  |  |  |  |  |  |  |  |  |  |  |  | 0 |  | 0 | 0 | 0
13 | CCNC(=O)[C@@H]1CCCN1C(=O)[C@H](CCCNC(=N)N)NC(=O)[C@H](CC(C)C)NC(=O)[C@@H](CC(C)C)NC(=O)[C@H](Cc1ccc(O)cc1)NC(=O)[C@H](CO)NC(=O)[C@H](Cc1c[nH]c2ccccc12)NC(=O)[C@H](Cc1c[nH]cn1)NC(=O)[C@@H]1CCC(=O)N1 [leuprolide] |  | > 10 | > 10 | > 10 |  |  |  |  |  | 107 | 114 | 107 | 114 | 72.2 | 92.6 | 96.9 | 103 | 97 | 102 | 99.5 | 99.3 | 95 | 110 | 103 | 102 | 99.3 | 98.6 | 105 | 105 |  | 0.7 | 0 | 0 | 0
14 | N[C@@H](Cc1cc(I)c(Oc2ccc(O)c(I)c2)c(I)c1)C(=O)O [liothyronine] |  |  |  |  | 102 | 104 | 107 | 96.6 |  | 93.8 | 98.5 | 96.7 | 98.1 | 96.5 | 97.1 | 97.5 | 93.4 | 96 | 93.5 | 98.9 | 96.8 | 92.5 | 93.5 | 95 | 104 | 92.4 | 92.6 | 88.6 | 91.3 | 0 | 0 | 0 | 0 | 1
15 | C[C@H](Cc1ccc(O)c(O)c1)[C@@H](C)Cc1ccc(O)c(O)c1 [masoprocol] | > 10 | > 10 | > 10 | > 10 | 98.3 | 94 | 94.5 | 101 | 97.1 | 88.3 | 83.1 | 72.1 | 78.6 | 55.5 | 92.1 | 104 | 97.7 | 97.8 | 95.9 | 95.5 | 108 | 93.4 | 93.6 | 93 | 102 | 91.6 | 88.6 | 91.5 | 81.3 | 0 | 9.6 | 0 | 0 | 1.4
16 | COC(=O)CCC(=O)CN [methyl-aminolevulinate] | > 10 | > 10 | > 10 | > 10 | 83.8 | 98.4 | 94.5 | 84 | 87.8 |  |  |  |  |  | 90.5 | 96 | 96.8 | 97.3 | 104 | 101 | 96.5 | 98 | 100 | 93.4 | 97.1 | 89 | 99.5 | 88.8 | 105 | 0 |  | 0 | 0 | 0
17 | CC(C)(O)[C@@H]1[C@H]2OC(=O)[C@@H]1[C@]1(O)C[C@H]3O[C@]34C(=O)O[C@H]2[C@]14C [picrotin] |  |  |  |  |  |  |  |  |  |  |  |  |  |  |  |  |  |  |  |  |  |  |  |  |  |  |  |  |  | 0 |  | 0 | 0 | 
18 | CC(C)Cc1ccc([C@@H](C)C(=O)NS(C)(=O)=O)cc1 [reparixin] |  |  |  |  |  |  |  |  |  |  |  |  |  |  |  |  |  |  |  |  |  |  |  |  |  |  |  |  |  | 0 |  | 0 | 0 | 0
19 | CSCC[C@H](NC(=O)[C@H](CC(C)C)NC(=O)CNC(=O)[C@H](Cc1ccccc1)NC(=O)[C@H](Cc1ccccc1)NC(=O)[C@H](CCC(N)=O)NC(=O)[C@H](CCC(N)=O)NC(=O)[C@@H]1CCCN1C(=O)[C@H](CCCCN)NC(=O)[C@@H]1CCCN1C(=O)[C@@H](N)CCCN=C(N)N)C(N)=O [substance-P] | > 10 | > 10 | > 10 | > 10 | 88.1 | 96.3 | 100 | 107 | 105 |  |  |  |  |  | 99.5 | 97.2 | 96.2 | 96.7 | 98.2 | 103 | 98.4 | 102 | 96.5 | 95.6 | 102 | 97.5 | 103 | 102 | 99 | 0 |  | 0 | 0 | 0
20 | CS(=O)(=O)c1ccc(-c2cn3ccccc3n2)cc1 [zolimidine] | > 10 | > 10 |  | > 10 | 117 | 104 | 87.3 | 98.6 | 93.8 |  |  |  |  |  | 100 | 94.7 | 94.8 | 93.5 | 95.9 |  |  |  |  |  | 107 | 107 | 105 | 94.4 | 88 | 0 |  | 0 |  | 0.3
